Measurements as given in patent US12729381B2, “Methods and compositions for inactivating interleukin-2-inducible t-cell kinase (ITK)” (priority 2020, dated 2026).
Entries after “also recorded” stand apart in the source; their conditions may differ.

Columns and labels:
[1] = target: S1P1 (Mus musculus, UniProt O08530); conditions: retention of T cells in secondary lymphoid organs; cited from earlier work
[2] = system: other kinases including mTOR and AKT; assay: Western blot of phospho-kinases in T cells cultured with commercially available ITK inhibitors; type: cell-based; conditions: mouse T cells (10n, CTA056) and human PBMC T cells (10n); pAKT, pmTOR
Text: Novel peptide inhibitor SLP76pTYR specifically targets ITK signaling and enhances Treg cell development. Since T cells from SLP76Y145FKI mice can separate GVHD from GVL, we sought to determine whether disruption of ITK signaling with pharmacological agents would have a similar effect. […] Thus, we sought to design a novel inhibitor that would explicitly target the SLP76-ITK interaction and signaling by preventing the SH2 domain of ITK from docking onto SLP76 at tyrosine 145. Since evolution usually selects residues at specific protein: protein interfaces for certain properties (Pletneva et al., 2006), we analyzed the physico-chemical and structural properties of the interface of the SH2 domain and SLP76-pY145 in our quest to generate a potent inhibitor of the ITK-SH2 domain: SLP76-pY145 interaction (FIG. 17A,B). […]
(FIG. 27A) WT mouse T cells were cultured with either 10n or vehicle, then lysed post-incubation, and lysates were western blotted for pITK (size 50-75 kDa), pPLCγ1 (size ~155 kDa), PERK (size ~42 kDa), pAKT (size ~60 kDa), and pmTOR (size 240 kDa). (FIG. 27B) Western blots from three experiments were quantitated and normalized to actin. […] (FIG. 27D) Western blots from three experiments were quantitated and normalized to actin. […] (FIG. 27F) Western blots from three experiments were quantitated and normalized to β-Actin. […]

S1P1, sequence (O08530 whole entry): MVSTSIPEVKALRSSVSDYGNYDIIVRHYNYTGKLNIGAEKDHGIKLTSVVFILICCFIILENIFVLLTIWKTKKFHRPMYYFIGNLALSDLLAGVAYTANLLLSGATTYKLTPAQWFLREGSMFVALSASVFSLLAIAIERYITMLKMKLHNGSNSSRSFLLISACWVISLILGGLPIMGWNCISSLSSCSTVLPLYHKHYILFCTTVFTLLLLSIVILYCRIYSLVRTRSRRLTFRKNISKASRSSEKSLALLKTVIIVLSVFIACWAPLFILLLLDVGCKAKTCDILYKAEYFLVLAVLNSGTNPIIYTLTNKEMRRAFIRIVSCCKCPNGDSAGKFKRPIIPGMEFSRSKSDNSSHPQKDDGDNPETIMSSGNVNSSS

Structure (SMILES) | effect on GVHD and GVL [1] | specificity for ITK / inhibition of other kinases [2]
CCCCCCCCc1ccc(CCC(N)(CO)CO)cc1 [FTY720] | ameliorates GVHD while maintaining GVL effects | 
O=c1[nH]c2cc3nc(-c4ccc(-c5ccncc5)cc4)n(CCCN4CCCCC4)c3cc2nc1Cc1ccccc1 [CTA056] |  | also inhibit several other kinases including mTOR and AKT; also recorded: not specific for ITK
CCc1ccc2nc(Nc3cc(Cc4ccccc4)nc(NC4CCC(O)CC4)n3)sc2c1 (stereo not drawn) [GSK2250665A] |  | also inhibit several other kinases including mTOR and AKT
